The results in this text go back to US6933319B2, “Resorcinol derivatives” (Pfizer Inc., priority 1999, dated 2005).

The experiment deals with T1, human tyrosinase (Homo sapiens, UniProt P14679).
T1 construct: endogenous in cells; host or cells: SKMEL 188 human melanoma cell line (lysate)
T1 sequence (P14679 19-529): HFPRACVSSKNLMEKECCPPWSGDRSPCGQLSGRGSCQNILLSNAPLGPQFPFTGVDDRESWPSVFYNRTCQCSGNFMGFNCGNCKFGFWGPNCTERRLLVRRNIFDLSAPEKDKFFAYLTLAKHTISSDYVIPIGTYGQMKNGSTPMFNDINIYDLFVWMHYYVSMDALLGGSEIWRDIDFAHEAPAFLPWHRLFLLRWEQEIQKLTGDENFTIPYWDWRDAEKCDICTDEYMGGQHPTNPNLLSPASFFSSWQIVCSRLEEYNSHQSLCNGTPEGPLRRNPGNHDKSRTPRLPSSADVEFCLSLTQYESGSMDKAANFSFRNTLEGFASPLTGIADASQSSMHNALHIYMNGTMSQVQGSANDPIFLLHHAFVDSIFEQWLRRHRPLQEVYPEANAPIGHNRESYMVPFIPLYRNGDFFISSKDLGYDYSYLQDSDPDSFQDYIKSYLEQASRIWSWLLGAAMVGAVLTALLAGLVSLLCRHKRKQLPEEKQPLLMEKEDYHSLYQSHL
The experiment can be described thus: Tyrosinase (DOPA Oxidase) Assay Using Cell Lysate. It is filed as biochemical. The following applies: SKMEL 188 human melanoma cell lysate; L-DOPA 100 μg/ml; incubated 8 hrs; read at 405 nm. On the procedure: 1. Tyrosinase (DOPA Oxidase) Assay Using Cell Lysate:
Human melanoma cell line, SKMEL 188 (licensed from Memorial Sloan-Kettering), is used in the cell lysate assay and the screen. In the assay, compounds and L-dihydroxyphenylalanine (L-DOPA) (100 μg/ml) are incubated with the cell lysates containing human tyrosinase for 8 hrs before the plates are read at 405 nm. Potency of the compounds in DOPA oxidase assay is correlated very well with that in tyrosine hydroxylase assay using ^3H-tyrosine as a substrate.

In general, IC50 refers to the midpoint of a concentration-inhibition curve. A high value points to a need for much substance. As for `ON=C1CCC(c2ccc(O)cc2O)C1` (racemic) [Example 23, (±)-3-(2,4-Dihydroxyphenyl)cyclopentanone oxime], the IC50 was ~2000 nM.
